This note sets out measurements from patent US20210270815A1, “SPERM FERTILITY CAPACITY TEST AND SPERM DECAPACITATING SUPPLEMENT” (priority 2018, published 2021).

Residues, ends and D or L forms follow the SMILES beside them. *: point of attachment. Cbz = O=C(OCc1ccccc1)*

For test [1], the system named is boar spermatozoa. The test can be described thus: TPEN Zn chelation of spermatozoa, FZ3 zinc probe and Fluo-4 calcium probe fluorescence. It is filed as cell-based, Sus scrofa. Particulars: 10 μM, 40 million sperm per mL, 1 hour. The protocol: Zn^2+ chelation was performed using TPEN (membrane permeable). 10 μM TPEN was incubated with 40 million sperm per mL for 1 hour. Stock TPEN: 1 mM in 1:100 EtOH:H2O.
(§1) Upon 4 hours of IVC, sample size of 100 μL (4 million spermatozoa) were incubated 30 minutes with 1:200 H33342, 1:200 PI, and 1:100 FZ3 for epifluorescence microscopy. Lower probe concentrations were necessary for IBFC due to camera detection differences, thus 1:1000, 1:1000, and 1:500 were used, respectively, with inclusion of 1:1000 PNA-AF647. For Fluo-4 calcium probe, we followed manufacturer protocol using identical cell concentrations.
IBFC data acquisition was performed following previous methodology^56. […]
Data were analyzed using IDEAS® analysis software from AMNIS EMD Millipore. […] Events in focus were further gated to analyze only a single spermatozoa by plotting H33342 fluorescence area by aspect ratio (FIG. 2A, middle panel). […] Such mask was created by taking a morphology mask of the brightfield (FIG. 2B, first column), subtracting a 4-pixel dilation of H33342 (FIG. 2B, second column), resulting in a mask to analyze fluorescence in the tail region only (FIG. 2B, third and fourth columns). […] This combined gating and masking strategy shown in FIG. 2C provided robust clean data, ready for signature analysis by plotting FZ3 intensity of this masked region, which is impossible with traditional flow cytometry. […]

The test system of test [2] is boar spermatozoa. The test can be described thus: Zinc signature (FZ3, image-based flow cytometry) of boar spermatozoa after 4 hours of in vitro capacitation (IVC). The class given is cell-based, Sus scrofa.
Excerpt: Fresh boar spermatozoa were capacitated using a protocol that rendered them capable of recognizing and binding to ZP, as well as undergoing acrosomal exocytosis and penetrating the oocyte ZP^11. IVC-induced protein tyrosine phosphorylation changes are shown in FIG. 3; acrosomal status and plasma membrane changes are shown in FIG. 4A and FIG. 4B. Briefly, spermatozoa were washed of seminal plasma once with noncapacitating media (NCM), a modified TL-HEPES medium, free of calcium dichloride (CaCl2) and addition of 11 mM D-glucose, with pH adjusted to 7.2. Spermatozoa were then resuspended in 0.5 mL in vitro capacitation (IVC) media, TL-HEPES-PVA supplemented with 5 mM sodium pyruvate, 11 mM D-glucose, 2 mM CaCl2, 2 mM sodium bicarbonate, and 2% (m/v) bovine serum albumin, and incubated in a 37° C. water bath for 4 hours, with sperm rotation performed every 60 minutes. Control incubations under non-IVC conditions used NCM. Proteasome inhibitors (100 μM MG-132 and 10 μM Epox/CLBL/MG-132) were mixed with IVC media prior to sperm pellet resuspension. 100 μM M MG-132 and ‘100 μM’ vehicle contained 0.5% (v/v) DMSO. 10 μM Epox/CLBL/MG-132 and ‘10 μM’ vehicle contained 0.3% (v/v) DMSO. PVA (polyvinyl alcohol) helped to reduce sperm aggregation and spermatozoa were pipetted repeatedly to dissociate sperm aggregates in a satisfactory manner prior to IBFC data acquisition. To confirm normal capacitation in the experimental IVC media, compared to 15 mM sodium bicarbonate IVC media, normal hyperactivation status was recorded and tyrosine phosphorylation status was normal (FIG. 3). Unlike murine or rodent sperm tyrosine phosphorylation, porcine tyrosine phosphorylation is much more modest, with less prominent changes during the course of capacitation. Therefore new bands after capacitation appear only at the molar weights of 32 kDa (acrosin binding protein), and 21 kDa protein (phospholipid hydroperoxide glutathione peroxidase). […] Final acrosome and plasma membrane modification status is similar at end of IVC regardless of the two IVC treatment conditions; however, the rate of change and cell death is faster in 15 mM sodium bicarbonate containing medium than experimental IVC medium (FIGS. 4A and 4B).
as §1
IBFC data acquisition was performed following previous methodology^56. Specifically, using a FlowSight flow cytometer (FS) fitted with a 20× microscope objective (numerical aperture of 0.9) with an imaging rate up to 2000 events per sec. The sheath fluid was PBS (without Ca^2+ or Mg^2+). The flow-core diameter and speed was 10 μm and 66 mm per sec, respectively. Raw image data were acquired using INSPIRE® software. To produce the highest resolution, the camera setting was at 1.0 μm per pixel of the charged-coupled device. In INSPIRE® FS data acquisition software, two brightfield channels were collected (channels 1 & 9), one FZ3 image (channel 2), one PI image (channel 5), one side scatter (SSC; channel 6), one H33342 (channel 7), and one PNA-AF647 image (channel 11), with a minimum of 10,000 spermatozoa collected. The following lasers and power settings were used: 405 nm (to excite H33342): 10 mW; 488 nm (to excite FZ3): 60 mW; 561 nm (to excite PI): 40 mW, 642 nm (to excite PNA-AF647): 25 mW; and 785 nM SSC laser: 10 mW.
Data were analyzed using IDEAS® analysis software from AMNIS EMD Millipore. Gating approach used standard focus and single cell gating calculations created by IDEAS software (FIG. 2A, left and middle panels). […]

The mark [3] stands for this setting: 100 μM in IVC media, 4 hours 37° C., pre-sperm rich fraction, mean±s.e.m., 3 biological replicates, 10,000 cells.

Turning to `c1ccc(CN(CCN(Cc2ccccn2)Cc2ccccn2)Cc2ccccn2)nc1` [TPEN, N,N,N′,N′-Tetrakis(2-pyridinylmethyl)-1,2-ethanediamine], in the test on boar spermatozoa [1], the “FZ3 fluorescence / zinc signature after Zn chelation, compared to vehicle” value was “removed a majority of FZ3 fluorescence to signature 3 and 4 states”; the “Fluo-4 calcium probe intensity compared to vehicle” value is “did not reduce Fluo-4 calcium probe intensity”.

Regarding `[Cl-].[Cl-].[Zn+2]` [ZnCl2, zinc chloride], the “Zinc signature after IVC with exogenous zinc” value in the test with boar spermatozoa [2] (1 mM added to IVC medium) is “retained signature 1”.

For `CC(C)C[C@@H](C=O)NC(=O)[C@H](CC(C)C)NC(=O)[C@H](CC(C)C)NC(=O)OCc1ccccc1` [MG132] (Cbz-Leu-Leu-Leu-aldehyde), in the test with boar spermatozoa [2] (setting [3]), the “Signature 1 (portion of spermatozoa with zinc signature 1)” value is 30.8% ± 13.1%^B, the “Signature 2 (portion of spermatozoa with zinc signature 2)” value was 32.9% ± 19.5%, the “Signature 3 (portion of spermatozoa with zinc signature 3)” value was 31.0% ± 4.9%^B and the “Signature 4 (portion of spermatozoa with zinc signature 4)” value was 5.4% ± 4.9%^AB. Besides, the “Retention of zinc signature 1 during IVC as compared to IVC+vehicle” value in the test on boar spermatozoa [2] (added to IVC conditions, pre-sperm rich fraction, P=0.0271 (signatures 1 & 2 combined P=0.0008)) is given as “significantly higher portion of spermatozoa retained signature 1”.
